Experimental findings from patent US12023319B2, “Carboxylic acid aromatic amides” (priority 2016, dated 2024) are described below.

What all share (type): cell-based
Experiment [1] concerns Bradykinin B1 agonist-induced secretion of IL-8. The experiment is described as follows: Bradykinin B1 agonist-induced secretion of IL-8 in human IMR-90 cells. As to conditions: 30 min compound, then 0.1 μM Lys-[Des-Arg9]Bradykinin and 0.1 μM Sar-[D-Phe8]-des-Arg9-Bradykinin for 5 hours. From the text: (§1) 2. Inhibitory Activity on Bradykinin B1 Agonist-Induced Secretion of IL-6 and IL-8 in Human IMR-90 Cells
(§2) The effect of the Compound Examples on secretion of the cytokine IL-6 and IL-8 has been investigated in the human foetal lung fibroblast IMR-90 cell line. Here the induction of the cytokine secretion was induced by the Bradykinin B1 agonists Lys-[Des-Arg9]Bradykinin (CAS 71800-36-7, Tocris Bioscience) and Sar-[D-Phe8]-des-Arg9-Bradykinin (CAS 126959-88-4, Tocris Bioscience) leading to the activation of the Bradykinin B1-driven signalling pathway. The inhibitory activity of the tested Compound Examples on Bradykinin B1 agonist-induced secretion of IL-6 and IL-8 is indicative for the compounds' prominent anti-inflammatory mode of action in kinin driven inflammation.
(§3) IMR-90 cells were cultured in Eagle's Minimum Essential Medium (EMEM) containing 2 mM L-glutamine, 1 g/L glucose, 1.5 g/L NaHCO3, 1 mM sodium pyruvate and non-essential amino acids (ATCC, 30-2003™) supplemented with 10% FBS (Biochrom, S0615) and 50 U/mL Penicillin, 50 μg/mL Streptomycin (PAA, P11-010). The assay was performed in EMEM and a cell density of […] IMR-90 cells/96-well. The Compound Examples have been serial diluted in 100% DMSO and evaluated at 8 different concentrations within the range of 3 nM and 10 μM and a final DMSO concentration of 0.4%. The IMR-90 cells have been incubated with the respective concentration of the compound for 30 min. The enhanced secretion of IL-6 and IL-8 was induced by the stimulation of these cells with 0.1 μM Lys-[Des-Arg9]Bradykinin (Tocris, catalogue no. 3225) and 0.1 μM Sar-[D-Phe8]-des-Arg9-Bradykinin (Tocris, catalogue no. 3230) for 5 hours at 37° C. and 5% CO2. Further, cells have been treated with Lys-[Des-Arg9]Bradykinin and Sar[D-Phe8]-des-Arg9-Bradykinin as neutral control and with 0.1% DMSO as inhibitor control. The amount of IL-6 and IL-8 in the supernatant was determined using the Human ProInflammatory Panel II (4-Plex) (MSD, K15025B) according to manufacturer's instruction. Briefly, supernatants were added onto assay plates and incubated at room temperature for 1-2 h with vigorous shaking at 600 rpm. Detection antibodies were then added onto the supernatants and incubated at room temperature for an additional 1-2 h with vigorous shaking at 600 rpm. Plates were washed three times with phosphate-buffered saline (PBS; 137 mM NaCl, 2.7 mM KC1, 6.5 mM Na2HP04, 1.7 mM KH2P04) containing 0.05% Tween-20 (Bio-Rad, 161-0781) and electrochemiluminescence detected using the MSD Sector Imager 6000 plate reader. The cell viability was measured using the CellTiter-Glo Luminescent Assay (Promega, G7571) following the manufacturers protocol. Briefly, the CellTiter-Glo Reagent was diluted with PBS (1:1) and added directly to cells. After incubation and shaking for 10 minutes luminescent signal was measured which is proportional to the amount of ATP present.
(§4) The effect of the compound on the amount of secreted cytokine has been calculated as 100/(measured cytokine concentration of neutral control-measured cytokine concentration of inhibitor control)*(measured cytokine concentration of compound dose-measured cytokine concentration of inhibitor control). IC50 values are determined using 4-parameter-fit.
(§5) The Compound Examples were tested in triplicates per plate and the inhibitory activity was determined as the relation between neutral and inhibitor control in percent. IC50 values were calculated using the 4-parameter logistic model.

For experiment [2], the target named is T1, native human Bradykinin B1 receptor (Homo sapiens, UniProt P46663).
T1 construct: which express native human Bradykinin B1 receptor after induction with human IL-1beta; Coriell Institute; host or cells: IMR-90 human foetal lung fibroblasts, induced with human IL-1beta
T1 sequence (P46663 1-353): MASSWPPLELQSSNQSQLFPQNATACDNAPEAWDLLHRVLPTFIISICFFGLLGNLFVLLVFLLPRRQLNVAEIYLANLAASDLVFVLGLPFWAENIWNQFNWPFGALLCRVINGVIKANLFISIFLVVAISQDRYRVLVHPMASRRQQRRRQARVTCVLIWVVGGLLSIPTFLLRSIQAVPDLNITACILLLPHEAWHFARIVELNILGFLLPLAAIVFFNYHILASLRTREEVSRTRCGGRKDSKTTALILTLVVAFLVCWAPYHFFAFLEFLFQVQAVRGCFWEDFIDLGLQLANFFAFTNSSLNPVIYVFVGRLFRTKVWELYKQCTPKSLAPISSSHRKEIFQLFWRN
Kind of experiment: Calcium flux assay (FLIPR) with IMR-90 human fibroblasts expressing Bradykinin B1 receptor after IL-1beta induction (hB1 IMR-90). To be noted: IMR-90 human fibroblasts after IL-1beta induction, read-out: hB1 IMR90 IC50. The method, boiled down:
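IMR-90 foetal lung fibroblasts induced with 0.35 ng/mL IL-1beta for 3 h to express native B1 receptor, then loaded with 2.5 μM Fluo-4/AM plus 2.5 mM probenecid for 2 h at 37 °C. Calcium flux read by FLIPR; compounds at 8 concentrations in triplicate, full inhibition defined by 20 μM Lys-(Des-Arg-Leu)-Bradykinin; IC50 derived.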
For orientation: Calcium assays in cells follow changes in intracellular calcium, usually with a dye or a luminescent sensor.

The subject of experiment [3] is Bradykinin B1 agonist-induced secretion of IL-6. The experiment is described as follows: Bradykinin B1 agonist-induced secretion of IL-6 in human IMR-90 cells. As to conditions: 30 min compound, then 0.1 μM Lys-[Des-Arg9]Bradykinin and 0.1 μM Sar-[D-Phe8]-des-Arg9-Bradykinin for 5 hours.
From the text: as §1, §2, §3, §4, §5

Regarding `O=C(O)c1cc(NC(=O)C2(c3ccc(C(F)(F)F)cc3F)CC2)ccc1-c1ccc(C(F)(F)F)nc1` [Example 6, 5-[({1-[2-Fluoro-4-(trifluoromethyl)phenyl]cyclopropyl}carbonyl)amino]-2-[6-(trifluoromethyl)pyridin-3-yl]benzoic acid], the IC50 (as a rule, the concentration at which inhibition is half-maximal) is 205 nM in experiment [1], 550 nM in experiment [2] and 443 nM in experiment [3].

For the molecule `O=C(O)c1cc(NC(=O)C2(c3ccc(C(F)(F)F)cc3F)CC2)cc(F)c1-c1ccc(C(F)(F)F)nc1` [Example 29, 3-Fluoro-5-[({1-[2-fluoro-4-(trifluoromethyl)phenyl]cyclopropyl}carbonyl)amino]-2-[6-(trifluoromethyl)pyridin-3-yl]benzoic acid], the values for the IC50 in experiment [1], in experiment [2] and in experiment [3] were 489 nM, 21 nM and 600 nM, respectively.

Consider `O=C(O)c1cc(NC(=O)C2(c3ccc(OC(F)(F)F)cc3F)CC2)ccc1-c1ccc(C(F)F)nc1` [Example 5, 2-[6-(Difluoromethyl)pyridin-3-yl]-5-[({1-[2-fluoro-4-(trifluoromethoxy)phenyl]cyclopropyl}carbonyl)amino]benzoic acid], for which the 50% inhibitory concentration (IC50) in experiment [1] is 483 nM; in experiment [2] it was 2700 nM; in experiment [3], 290 nM.

`O=C(O)c1cc(NC(=O)C2(c3ccc(C(F)(F)F)cc3F)CC2)ccc1-c1cnn(C2CCC2)c1` [Example 3, 2-(1-Cyclobutyl-1H-pyrazol-4-yl)-5-[({1-[2-fluoro-4-(trifluoromethyl)phenyl]cyclopropyl}carbonyl)amino]benzoic acid]: the concentration for half-maximal inhibition (IC50) amounted to 53 nM in experiment [1], 12 nM in experiment [2] and 47 nM in experiment [3].

For `CCC(F)(F)c1ccc(-c2ccc(NC(=O)C3(c4ccc(C(F)(F)F)cc4F)CC3)cc2C(=O)O)cn1` [Example 2, 2-[6-(1,1-Difluoropropyl)pyridin-3-yl]-5-[({1-[2-fluoro-4-(trifluoromethyl)-phenyl]cyclopropyl}carbonyl)amino]benzoic acid], the concentration for half-maximal inhibition (IC50) amounted to 303 nM in experiment [1], 44 nM in experiment [2] and 113 nM in experiment [3].

As to `O=C(O)c1cc(NC(=O)C2(c3ccc(C(F)(F)F)cc3F)CC2)cc(F)c1-c1cnn(C2CCC2)c1` [Example 42, 2-(1-Cyclobutyl-1H-pyrazol-4-yl)-3-fluoro-5-[({1-[2-fluoro-4-(trifluoromethyl)phenyl]cyclopropyl}carbonyl)amino]benzoic acid], the IC50 in experiment [1] was found to be 85 nM; in experiment [2], 4.1 nM; in experiment [3], 70 nM.

With `O=C(O)c1cc(NC(=O)C2(c3ccc(C(F)(F)F)cc3F)CC2)ccc1-c1cc2ccccc2s1` [Example 1, 2-(1-Benzothiophen-2-yl)-5-[({1-[2-fluoro-4-(trifluoromethyl)phenyl]cyclopropyl}carbonyl)amino]benzoic acid], the IC50 in experiment [1] was found to be 245 nM; in experiment [2], 72 nM; in experiment [3], 149 nM.
